Where two headings read alike, the source gives them in different places. Residues, ends and D or L forms follow the SMILES beside them. *: point of attachment. Cbz = O=C(OCc1ccccc1)*
How the values were obtained:
[1] = system: eight TNBC cell lines (BT-549, CAL-148, HCC1806, HCC38, HCC70, MDA-MB-436, MDA-MB-453, MDA-MB-468); test: Monotherapy drug screen, mean across the TNBC cell lines; conditions: for cytotoxic effect at the highest dose / area under the dose response curve (AUC), mean ± SD: TNBC cell lines; for cytotoxic effect at the highest dose: by GRmax; for IC50: read-out: GR50 (mean ± SD)
Method: (§1) Eighteen pharmaceutical compounds were purchased from Selleckchem (Supplementary Table 2). Stock solutions were prepared using dimethyl sulfoxide (DMSO; Merck), physiological saline (sodium chloride 0.9%) or Milli-Q water, and stored at −80 °C. […] Matched concentration solvent vehicle controls were used for each drug concentration. The drug screens were performed in triplicate and repeated three (monotherapy) or two (combination therapy) times (Fig. 7).
(§2) The optimal seeding density per 96-well was determined for each cell line as previously described. The cells were seeded at a density of 4.0 × 10^3 to 7.5 × 10^3 (cell type dependent) in 96-well clear, flat-bottom microplates (Corning Life Sciences, Sigma-Aldrich) in 100 µl complete culture medium (Supplementary Table 1) and cultured for 24 h. Cell viability was determined using the resazurin assay in untreated cells at the time of plating (t = 0) and treated cells after 24 h drug treatment (Fig. 7). Percentage cell viability was calculated as 100% × (absorbance of treated cells – absorbance of background controls) / (absorbance of matched solvent vehicle controls – absorbance of background controls). The area under the curve (AUC), half-maximal inhibitory concentration (IC50), drug potency (GR50), and drug efficacy (GRmax) were determined for each compound using the GRmetrics (version 1.20.0) package in R. The monotherapy data were evaluated with the IDACombo (version 1.0.2) package in R to predict potential drug combinations (Table 1). SynergyFinder (version 3.2.10) package in R was used to identify synergistic drug combinations.
(§3) Eighteen pharmaceutical compounds were purchased from Selleckchem. […] The solubility of the compound was enhanced by pre-heating the solvent (lukewarm), if necessary. […] The stock solutions were stored at -80°C. […] Matched concentration solvent vehicle controls were used for each drug concentration. The drug screens were performed in triplicate and repeated three times for the monotherapies and twice for the combination treatments. The drug(s) and corresponding controls were plated in 96-well PCR plates (VWR) and stored at -20°C (Fig. 6). The drug plates were thawed, centrifuged (3000 rpm for 30s), and acclimatized to RT before the drugs were added to the cells. New drug plates were prepared for each drug screen.
(§4) The cells were seeded at a density of 4.0x10^3 to 7.5x10^3 (cell type-dependent) in 96-well clear, flat-bottom microplates (Corning Life Sciences, Sigma-Aldrich) in 100 µl culture medium supplemented with 10% FBS and cultured for 24h. Cell viability was determined using the resazurin assay after 24h drug treatment (Fig. 6). Percentage cell viability was calculated as 100% × (absorbance of treated cells – absorbance of background controls) / (absorbance of matched solvent vehicle controls – absorbance of background controls). Normalized growth rate inhibition (GR) was assessed using the absorbance of untreated cells after the time of plating (t = 0). […] For combination treatment, the monotherapy data were evaluated with the IDACombo (version 1.0.2)[20] package in R to predict potential drug combinations (Table 1). SynergyFinder (version 3.2.10)[21] package in R was used to identify synergistic drug combinations.

HCC38 cells = test: Combination therapy, resazurin viability, SynergyFinder; format: cell-based, human
Method: as §1, §2, §3, §4

CAL-148 cells [2] = test: Resazurin-based cell viability assay, monotherapy drug screen; design: species or system human; AUC: unit not given beside the values; conditions: for AUC: area under the dose response curve, 24 h; for GRmax: drug efficacy at highest tested dose (<0 cytotoxic, 0 cytostatic, >0 partial growth inhibition)
Method: as §1, §2, §3
Cell viability was measured daily (day 0 [plating day] to day 4) using 0.2 mg/ml resazurin solution prepared from resazurin sodium salt (Fisher Scientific) dissolved in sterile 1xPBS (ThermoFisher Scientific). Before use, the resazurin solution was brought to RT before 10 µl (10% of cell medium volume) was added to each 96-well and incubated for 4h at 37°C. […] The slope of the curve was used to determine the optimal seeding density, i.e., the highest seeding density with linear growth between days 1 and 3.
as §4

[3] = system: eight TNBC cell lines and two controls (MCF-10A and MCF-7); test: Monotherapy drug screen, all investigated cell lines; format: cell-based, human; conditions: for drug potency classification, below the threshold: GR50 and AUC both below the threshold
Method: as §1, §2, §3, §4

[4] = system: control cell lines (MCF-10A and MCF-7); test: Monotherapy drug screen, mean across the controls; format: cell-based, human; conditions: for area under the dose response curve (AUC), mean ± SD: 24 h; for IC50: 24 h drug treatment, read-out: GR50 (mean ± SD)
Method: as §1, §2, §3, §4

[5] = target: T1, β5 catalytic site of the 20 S proteasome (Homo sapiens, UniProt P28074); test: Proteasome activity of the β5 catalytic site in MCF-7 cells (Suc-Leu-Leu-Val-Tyr-AMC substrate); format: cell-based; conditions: MCF7, read-out: inhibition of β5 activity
T1 construct: endogenous in cells; host or cells: MCF-7
Method: Proteasome activity of the β5 catalytic site was determined for the PIs using a Suc-Leu-Leu-Val-Tyr-AMC fluorescent proteasome substrate (Enzo Life Sciences, Cat. BML-P802) at a final concentration of 20 µM. MCF-7 cells were seeded at 7.5 × 10^3 cells/well in black 96-well flat-bottom microplates (Nuclon™ Delta Surface, ThermoFisher Scientific) with 100 µl culture medium supplemented with 10% FBS. After 24 h, the cells were treated for 6 h with the 11 PIs at 1, 10, 100, and 1000 nM and matched untreated controls.

CAL-148 cells [6] = test: Combination therapy, resazurin viability, SynergyFinder; format: cell-based, human
Method: as §1, §2, §3, §4

[7] = CAL-148, 24 h drug treatment, read-out: IC50
[8] = CAL-148, growth rate inhibition concentration at GR(c) = 0.5, 24 h, read-out: GR50 (the source's name)
[9] = metrics GR50 < 1.0 µM and AUC < 0.80
[10] = Homo sapiens, CAL-148, growth rate inhibition concentration at GR(c) = 0.5, 24 h, read-out: GR50 (the source's name)
[11] = Homo sapiens, CAL-148, 24 h, read-out: GR50 (µM)
[12] = Homo sapiens, CAL-148, 24 h drug treatment, read-out: IC50

SMILES	cytotoxic effect at the highest dose [1]	AUC (CAL-148 cells [2]; CAL-148)	GRmax (CAL-148 cells [2]; CAL-148)	IC50 (CAL-148 cells [2]; [8])	drug potency classification [3, 9]	area under the dose response curve (AUC), mean ± SD ([1]; 24 h)	IC50 (CAL-148 cells [2]; [10])	further results
N.N.O=C([O-])C1(C(=O)[O-])CCC1.[Pt+2] [Carboplatin]	lowest cytotoxic effects	0.92	0.03	0.49 µM	–	–	–	Inhibition (%) (HCC38 cells; carboplatin 8 µM alone): −3.64%; Inhibition (%) (HCC38 cells; carboplatin 32 µM alone): −1.55%; Inhibition (%) (HCC38 cells; carboplatin 128 µM alone): 0.55%; Inhibition (%) (HCC38 cells; carboplatin 512 µM alone): 11.55%; IC50 (CAL-148 cells [2]; [7]): 0.93 µM
CC(C)C[C@H](NC(=O)[C@H](CCc1ccccc1)NC(=O)CN1CCOCC1)C(=O)N[C@@H](Cc1ccccc1)C(=O)N[C@@H](CC(C)C)C(=O)[C@@]1(C)CO1 [Carfilzomib]	–	0.84	−0.01	–	potent drugs	0.73 ± 0.10	0.37 µM	drug potency classification, below the threshold [3]: highly potent drugs; IC50 ([1]; Homo sapiens, 24 h): 440 ± 340 nM
CC1=C(O)C(=O)C=C2C1=CC=C1[C@@]2(C)CC[C@@]2(C)[C@@H]3C[C@](C)(C(=O)O)CC[C@]3(C)CC[C@]12C [Celastrol]	cytotoxic	0.85	−0.84	–	–	–	–	IC50 (CAL-148 cells [2]; Homo sapiens, CAL-148, 24 h): 3.7 µM; IC50 (CAL-148 cells [2]; [11]): 3.1 µM
N.N.[Cl][Pt][Cl] [Cisplatin]	–	0.48	−0.97	0.032 µM	potent drugs	0.51 ± 0.10	–	area under the dose response curve (AUC), mean ± SD [4]: 0.54 ± 0.12; IC50 (CAL-148 cells [2]; [7]): 0.048 µM
CC(=O)O[C@@]12CO[C@@H]1C[C@H](O)[C@@]1(C)C(=O)[C@H](O)C3=C(C)[C@@H](OC(=O)[C@H](O)[C@@H](NC(=O)OC(C)(C)C)c4ccccc4)C[C@@](O)([C@@H](OC(=O)c4ccccc4)[C@H]21)C3(C)C [Docetaxel]	–	0.89	0.74	–	potent drugs	0.79 ± 0.10	–	IC50 ([4]; Homo sapiens): 7.8 ± 1.3 nM; drug potency classification, below the threshold [3]: highly potent drugs; IC50 ([1]; Homo sapiens, 24 h): 8.8 ± 3.9 nM
COc1cccc2c1C(=O)c1c(O)c3c(c(O)c1C2=O)C[C@@](O)(C(=O)CO)C[C@@H]3O[C@H]1C[C@H](N)[C@H](O)[C@H](C)O1 [Doxorubicin]	lowest cytotoxic effects	0.72	0.15	–	–	–	0.12 µM	IC50 (CAL-148 cells [2]; [12]): 0.22 µM
COc1cccc2c1C(=O)c1c(O)c3c(c(O)c1C2=O)C[C@@](O)(C(=O)CO)C[C@@H]3O[C@H]1C[C@H](N)[C@@H](O)[C@H](C)O1 [Epirubicin]	lowest cytotoxic effects	0.73	0.14	–	–	–	0.11 µM	IC50 (CAL-148 cells [2]; [12]): 0.2 µM
CC[C@H](C)[C@H](NC(=O)[C@H]([C@@H](C)CC)N(C)C(C)=O)C(=O)N[C@H](C(=O)N[C@@H](CC(C)C)C(=O)[C@@]1(C)CO1)[C@@H](C)O [Epoxomicin]	lowest cytotoxic effects	0.78	0.11	0.77 µM	–	0.69 ± 0.10	–	area under the dose response curve (AUC), mean ± SD [4]: 0.66 ± 0.080; IC50 [4]: 85 ± 10 nM; drug potency classification [3]: potent drugs; drug potency classification, below the threshold [3]: highly potent drugs; IC50 ([1]; across the TNBC cell lines, 24 h drug treatment): 220 ± 230 nM
CC(C)C[C@@H](C=O)NC(=O)[C@H](CC(C)C)NC(=O)[C@H](CC(C)C)NC(=O)OCc1ccccc1 [MG 132, MG-132] (Cbz-Leu-Leu-Leu-aldehyde)	–	0.89	0.22	–	–	–	–	inhibition at 10 µM [5]: 25%; IC50 (CAL-148 cells [2]; [11]): 3.4 µM
[NH2][Pt]1([NH2])[O]CC(=O)[O]1 [Nedaplatin]	cytotoxic	0.78	−0.93	0.21 µM	potent drugs	0.68 ± 0.10	–	area under the dose response curve (AUC), mean ± SD [4]: 0.70 ± 0.13; Inhibition (%) (CAL-148 cells [6]; nedaplatin 8 µM alone): −9.21%; Inhibition (%) (CAL-148 cells [6]; nedaplatin 32 µM alone): 2.14%; Inhibition (%) (CAL-148 cells [6]; nedaplatin 128 µM alone): 9.01%; Inhibition (%) (CAL-148 cells [6]; nedaplatin 512 µM alone): 49.72%; IC50 (CAL-148 cells [2]; [7]): 0.32 µM
COC[C@H](NC(=O)c1cnc(C)s1)C(=O)N[C@@H](COC)C(=O)N[C@@H](Cc1ccccc1)C(=O)[C@@]1(C)CO1 [Oprozomib]	–	0.90	0.14	–	–	–	1.1 µM	–
CC(=O)O[C@H]1C(=O)[C@@]2(C)[C@H]([C@H](OC(=O)c3ccccc3)[C@]3(O)C[C@H](OC(=O)[C@H](O)[C@@H](NC(=O)c4ccccc4)c4ccccc4)C(C)=C1C3(C)C)[C@]1(OC(C)=O)CO[C@@H]1C[C@@H]2O [Paclitaxel]	–	0.92	0.51	–	–	–	1.1 µM	inhibition at 0.01 µM (HCC38 cells; Homo sapiens, paclitaxel 10 nM alone): -0.18%; inhibition at 0.078 µM (HCC38 cells; Homo sapiens, paclitaxel 78 nM alone): 10.6%; inhibition at 0.625 µM (HCC38 cells; Homo sapiens, paclitaxel 625 nM alone): 21.1%; inhibition at 5 µM (HCC38 cells; Homo sapiens, paclitaxel 5000 nM alone): 24.7%
